Data published in ChEMBL document CHEMBL1201862, “PubChem BioAssay data set” (2004).
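Following 48 hours of exposure in 96-well plates, responses at five concentrations were used to interpolate endpoints linearly. At the GI50, growth is halved.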 The source made the active and inactive calls. Rule as the data show it: active = GI50 up to about 1.1 µM and inactive = higher. Starred links: 1 amine or outer side, 2 acyl side, 3 side chain; linkers in the order of their positions; H or OH if unused. Non-standard residues stand in square brackets, D forms with d. Residues, ends and D or L forms follow the SMILES beside them. X41 = CSCCCC(N[*:1])C(=O)[*:2]

How the values were obtained:
Assay in all cases: NCI tumour cell line growth inhibition, 48 h
MOLT-4 = tested on: MOLT-4
UACC-62 = tested on: UACC-62
Hs-578T = tested on: Hs-578T
CCRF-CEM = tested on: CCRF-CEM
TK-10 = tested on: TK-10
SNB-75 = tested on: SNB-75
MDA-MB-231 = tested on: MDA-MB-231
SF-539 = tested on: SF-539
SN12C = tested on: SN12C
NCI-H23 = tested on: NCI-H23
HCT-116 = tested on: HCT-116
HCC 2998 = tested on: HCC 2998
OVCAR-3 = tested on: OVCAR-3
UO-31 = tested on: UO-31
OVCAR-4 = tested on: OVCAR-4
EKVX = tested on: EKVX
MDA-MB-435 = tested on: MDA-MB-435
ACHN = tested on: ACHN
HT-29 = tested on: HT-29
A498 = tested on: A498

SMILES	GI50 (MOLT-4)	GI50 (UACC-62)	GI50 (Hs-578T)	GI50 (CCRF-CEM)	GI50 (TK-10)	GI50 (SNB-75)	GI50 (MDA-MB-231)	GI50 (SF-539)	GI50 (SN12C)	GI50 (NCI-H23)	GI50 (HCT-116)	GI50 (HCC 2998)	GI50 (OVCAR-3)	GI50 (UO-31)	GI50 (OVCAR-4)	GI50 (EKVX)	GI50 (MDA-MB-435)	GI50 (ACHN)	GI50 (HT-29)	GI50 (A498)
COCCCN1C(=O)C2c3[nH]c4ccccc4c3C3CCC(C(C)(C)C)CC3C2C1=O (configuration not stated)	24.7 µM (inactive)	> 10 µM (inactive)	32.1 µM (inactive)	22.6 µM (inactive)	59.3 µM (inactive)	47.6 µM (inactive)	21.7 µM (inactive)	27.4 µM (inactive)	21.4 µM (inactive)	27 µM (inactive)	19.8 µM (inactive)	20.3 µM (inactive)	17.4 µM (inactive)	54.3 µM (inactive)	31.5 µM (inactive)	34.4 µM (inactive)	29.7 µM (inactive)	27.4 µM (inactive)	15.3 µM (inactive)	–
COc1ccc(/N=C2\C(=N/c3ccc(OC)cc3)N(S(=O)(=O)c3ccccc3)C(=S)N2c2ccc(OC)cc2)cc1	> 100 µM (inactive)	> 100 µM (inactive)	89.1 µM (inactive)	–	> 100 µM (inactive)	4.88 µM (inactive)	27.2 µM (inactive)	> 100 µM (inactive)	> 100 µM (inactive)	> 100 µM (inactive)	> 100 µM (inactive)	> 100 µM (inactive)	> 100 µM (inactive)	> 100 µM (inactive)	–	> 100 µM (inactive)	> 100 µM (inactive)	> 100 µM (inactive)	–	–
COc1ccc(C(=O)C(CC2C(=O)CC(C)(C)C(C(=O)C(=O)Nc3c(C)cccc3C)C2=O)c2ccc(OC)cc2)cc1 (configuration not stated)	> 100 µM (inactive)	> 100 µM (inactive)	> 100 µM (inactive)	> 100 µM (inactive)	> 100 µM (inactive)	> 100 µM (inactive)	> 100 µM (inactive)	> 100 µM (inactive)	> 100 µM (inactive)	> 100 µM (inactive)	> 100 µM (inactive)	> 100 µM (inactive)	> 100 µM (inactive)	70.1 µM (inactive)	> 100 µM (inactive)	> 100 µM (inactive)	> 100 µM (inactive)	> 100 µM (inactive)	> 100 µM (inactive)	–
CSCCCC(NC(=O)CNC(=O)C1CCCN1C(=O)C(Cc1ccc(O)cc1)NC(=O)C(Cc1ccccc1)NC(=O)C(CCCNC(=N)N)NC(=O)C(CC(=O)O)NC(=O)C1CCCN1C(=O)C(CC(=O)O)NC(=O)C1CCCN1C(=O)C1CCCN1C(=O)CN)C(N)=O (configuration not stated) (H-GPPDPDRFYPG[X41]-NH2; configuration not given here)	> 50 µM (inactive)	> 50 µM (inactive)	> 50 µM (inactive)	> 50 µM (inactive)	> 50 µM (inactive)	–	> 50 µM (inactive)	> 50 µM (inactive)	> 50 µM (inactive)	> 50 µM (inactive)	> 50 µM (inactive)	–	> 50 µM (inactive)	> 50 µM (inactive)	> 50 µM (inactive)	> 50 µM (inactive)	> 50 µM (inactive)	> 50 µM (inactive)	> 50 µM (inactive)	> 50 µM (inactive)
NNC(=O)CS(=O)(=O)Nc1ncccn1	–	> 100 µM (inactive)	> 100 µM (inactive)	–	13.2 µM (inactive)	> 100 µM (inactive)	> 100 µM (inactive)	> 100 µM (inactive)	> 100 µM (inactive)	> 100 µM (inactive)	> 100 µM (inactive)	–	> 100 µM (inactive)	> 100 µM (inactive)	> 100 µM (inactive)	> 100 µM (inactive)	> 100 µM (inactive)	> 100 µM (inactive)	> 100 µM (inactive)	> 100 µM (inactive)
O=C1c2cn[nH]c2N=C(Nc2ccccc2)C1/N=C/c1ccc([N+](=O)[O-])cc1 (configuration not stated)	> 10 µM (inactive)	–	> 10 µM (inactive)	> 10 µM (inactive)	> 10 µM (inactive)	> 10 µM (inactive)	–	> 10 µM (inactive)	> 10 µM (inactive)	> 10 µM (inactive)	> 10 µM (inactive)	> 10 µM (inactive)	> 10 µM (inactive)	> 10 µM (inactive)	> 10 µM (inactive)	> 10 µM (inactive)	> 10 µM (inactive)	> 10 µM (inactive)	> 10 µM (inactive)	–
CC(C)N1[C@@H]2CCCC[C@H]2N(C(C)C)[PH]1=O	> 100 µM (inactive)	> 100 µM (inactive)	> 100 µM (inactive)	> 100 µM (inactive)	> 100 µM (inactive)	> 100 µM (inactive)	–	> 100 µM (inactive)	> 100 µM (inactive)	> 100 µM (inactive)	> 100 µM (inactive)	> 100 µM (inactive)	> 100 µM (inactive)	> 100 µM (inactive)	–	> 100 µM (inactive)	> 100 µM (inactive)	> 100 µM (inactive)	> 100 µM (inactive)	> 100 µM (inactive)
C/C(=C\COP(=O)(O)OP(=O)(O)O)CCCOCc1ccccc1	> 100 µM (inactive)	> 100 µM (inactive)	> 100 µM (inactive)	< 0.01 µM (active)	> 100 µM (inactive)	> 100 µM (inactive)	> 100 µM (inactive)	> 100 µM (inactive)	> 100 µM (inactive)	> 100 µM (inactive)	> 100 µM (inactive)	–	> 100 µM (inactive)	> 100 µM (inactive)	> 100 µM (inactive)	> 100 µM (inactive)	> 100 µM (inactive)	> 100 µM (inactive)	> 100 µM (inactive)	–
